Legend:
[1] = target: T1, human prostanoid FP receptor (Homo sapiens, UniProt P43088); test: FLIPR Ca2+ signaling antagonist assay, FP receptor stable cell line; type: cell-based; details: HEK-293 EBNA stable cells, standard agonist 17-phenyl-PGF2α; NA = inactive (no antagonism or Kb≧10,000 nM)
T1 construct: expressed in transfected cells
Procedure: (§1) The above compounds were tested for PG antagonist activity as follows using human recombinant prostanoid receptor (DP1, EP1-4, FP, IP and TP) stable cell lines:
(§2) In order to measure the response of Gs and Gi coupled prostanoid receptors as a Ca^2+ signal, chimeric G protein cDNAs were used. Stable cell lines over-expressing human prostanoid DP1, EP1-4, FP, IP, and TP receptors were established as follows:
(§3) Briefly, human prostanoid DP1, EP2, and EP4 receptor cDNAs were co-transfected with chimeric Gqs cDNA containing a haemagglutanin (HA) epitope; human prostanoid EP3 receptors were co-transfected with chimeric Gqi-HA; human EP1, FP, IP, and TP receptor cDNAs were expressed with no exogenous G-proteins. Gqs and Gqi chimeric cDNAs (Molecular Devices, Sunnyvale, Calif., U.S.A.), as well as cDNAs of prostanoid receptors, were cloned into a pCEP4 vector with a hygromycin B selection marker. Transfection into HEK-293 EBNA (Epstein-Barr virus nuclear antigen) cells was achieved by the FuGENE 6 transfection Reagent (Roche Applied Science, Indianapolis, Ind., USA). Stable transfectants were selected according to hygromycin resistance. Because Gqs and Gqi contained an HA epitope, G-protein expression was detected by Western blotting analysis using anti-mouse HA monoclonal antibody and horseradish peroxidase (HRP)-conjugated secondary antibody, while functional expression of prostanoid receptors was detected by FLIPR screening (Matias et al., 2004). These stable cell lines were validated using previously published antagonists at 10 μM against serial dilutions of standard agonists by FLIPR functional assays for Ca^2+ Signaling (as described below).
(§4) Ca^2+ signaling studies were performed using a FLIPR TETRA system (Molecular Devices, Sunnyvale, Calif., USA) in the 384-format. This is a high-throughput instrument for cell-based assays to monitor Ca^2+ signaling associated with GPCRs and ion channels. Cells were seeded at a density of 5×10^4 cells/well in BioCoat poly-D-lysine coated, black wall, clear bottom 384-well plates (BD Biosciences, Franklin lakes, NJ, USA) and allowed to attach overnight in an incubator at 37° C. The cells were then washed twice with HBSS-HEPES buffer (Hanks' balanced salt solution without bicarbonate and phenol red, 20 mM HEPES, pH 7.4) using an ELx405 Select CW Microplate Washer (BioTek, Winooski, Vt., USA). After 60 min of dye-loading in the dark using the Ca^2+-sensitive dye Fluo-4AM (Invitrogen, Carlsbad, Calif., USA), at a final concentration of 2×10^−6M, the plates were washed 4 times with HBSS-HEPES buffer to remove excess dye and leaving 50 μl of buffer in each well. The plates were then placed in the FLIPR TETRA instrument and allowed to equilibrate at 37° C. AGN-211377 was added in a 25 μl volume to each well to give final concentrations of 0.1 μM, 0.3 μM, 1 μM, 3 μM, 10 μM, and 30 μM; or 0.067 μM, 0.1 μM, 0.2 μM, 0.3 μM, 0.67 μM, and 1 μM for cells over-expressing TP receptors. After 4.5 minutes, a 7-point serial dilution of the standard agonist for the corresponding receptor, in a 25 μl volume was injected at the final concentrations from 10^−11M to 10^−5M in 10-fold serial dilution increments for cells expressing human recombinant DP1, EP1, EP2, EP3, EP4, FP, and IP receptors. The dose range for the standard agonist for human recombinant TP receptors was from 10^−12M to 10^−6M. HBSS-HEPES buffer was used as the negative control for the standard agonists. Cells were excited with LED (light emitting diode) excitation at 470-495 nm and emission was measured through an emission filter at 515-575 nm. Assay plates were read for 3.5 minutes using the FLIPR^TETRA. The peak increase in fluorescence intensity was recorded for each well. On each plate, negative controls, dose response of positive controls, and co-treatments of antagonist-agonist for each dose were in triplicates. Standard agonists were as follows: DP=BW 245C, EP1-EP4=PGE2, FP=17-phenyl-PGF2α, IP=Cicaprost, and TP=U-46619. […]

[2] = target: T2, human prostanoid DP1 receptor (Homo sapiens, UniProt Q13258); test: FLIPR Ca2+ signaling antagonist assay, DP1 receptor stable cell line; type: cell-based; details: HEK-293 EBNA stable cells with chimeric Gqs, standard agonist BW 245C; NA = inactive (no antagonism or Kb≧10,000 nM)
T2 construct: expressed in transfected cells
T2 sequence (Q13258 1-359): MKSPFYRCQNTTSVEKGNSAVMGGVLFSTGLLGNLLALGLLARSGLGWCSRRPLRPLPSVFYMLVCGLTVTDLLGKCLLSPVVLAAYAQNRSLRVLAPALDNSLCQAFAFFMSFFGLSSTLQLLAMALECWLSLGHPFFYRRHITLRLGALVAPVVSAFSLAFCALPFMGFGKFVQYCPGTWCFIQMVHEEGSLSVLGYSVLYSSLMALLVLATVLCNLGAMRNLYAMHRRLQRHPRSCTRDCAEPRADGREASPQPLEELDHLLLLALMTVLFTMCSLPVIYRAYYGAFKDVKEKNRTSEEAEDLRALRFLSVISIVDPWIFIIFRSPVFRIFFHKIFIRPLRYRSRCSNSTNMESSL
Procedure: as §1, §2, §3, §4

[3] = target: T3, human prostanoid EP1 receptor (Homo sapiens, UniProt P34995); test: FLIPR Ca2+ signaling antagonist assay, EP1 receptor stable cell line; type: cell-based; details: HEK-293 EBNA stable cells, standard agonist PGE2; NA = inactive (no antagonism or Kb≧10,000 nM)
T3 construct: expressed in transfected cells
T3 sequence (P34995 1-402): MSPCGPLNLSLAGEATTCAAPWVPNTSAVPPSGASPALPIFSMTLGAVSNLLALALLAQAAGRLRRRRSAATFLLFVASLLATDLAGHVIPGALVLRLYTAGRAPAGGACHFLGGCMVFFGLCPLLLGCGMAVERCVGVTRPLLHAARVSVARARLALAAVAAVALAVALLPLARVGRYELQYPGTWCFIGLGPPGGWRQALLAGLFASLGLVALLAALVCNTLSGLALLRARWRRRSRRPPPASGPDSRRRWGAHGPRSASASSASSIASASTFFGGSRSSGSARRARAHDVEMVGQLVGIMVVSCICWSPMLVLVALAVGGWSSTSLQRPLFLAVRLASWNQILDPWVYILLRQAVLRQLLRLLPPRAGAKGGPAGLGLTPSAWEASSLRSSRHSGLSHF
Procedure: as §1, §2, §3, §4

[4] = target: T4, human prostanoid EP2 receptor (Homo sapiens, UniProt P43116); test: FLIPR Ca2+ signaling antagonist assay, EP2 receptor stable cell line; type: cell-based; details: HEK-293 EBNA stable cells with chimeric Gqs, standard agonist PGE2; NA = inactive (no antagonism or Kb≧10,000 nM)
T4 construct: expressed in transfected cells
Procedure: as §1, §2, §3, §4

[5] = target: T5, human prostanoid EP3 receptor (Homo sapiens, UniProt P43115); test: FLIPR Ca2+ signaling antagonist assay, EP3 receptor stable cell line; type: cell-based; details: HEK-293 EBNA stable cells with chimeric Gqi, standard agonist PGE2; NA = inactive (no antagonism or Kb≧10,000 nM)
T5 construct: expressed in transfected cells
T5 sequence (P43115 1-390): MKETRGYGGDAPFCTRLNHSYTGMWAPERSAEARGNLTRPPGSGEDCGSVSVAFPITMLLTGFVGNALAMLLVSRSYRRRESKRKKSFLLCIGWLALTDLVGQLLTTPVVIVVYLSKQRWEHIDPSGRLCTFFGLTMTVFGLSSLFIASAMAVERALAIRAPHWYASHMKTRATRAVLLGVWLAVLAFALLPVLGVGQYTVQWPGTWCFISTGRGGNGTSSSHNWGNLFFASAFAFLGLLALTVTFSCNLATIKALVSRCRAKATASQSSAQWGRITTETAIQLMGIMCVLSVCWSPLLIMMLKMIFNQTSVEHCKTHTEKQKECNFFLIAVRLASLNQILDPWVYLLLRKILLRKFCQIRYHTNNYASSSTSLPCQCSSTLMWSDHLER
Procedure: as §1, §2, §3
Ca^2+ signaling studies were performed using a FLIPR TETRA system (Molecular Devices, Sunnyvale, Calif., USA) in the 384-format. […] Cells were excited with LED (light emitting diode) excitation at 470-495 nm and emission was measured through an emission filter at 515-575 nm. Assay plates were read for 3.5 minutes using the FLIPR^TETRA. The peak increase in fluorescence intensity was recorded for each well. […]

[6] = target: T6, human prostanoid EP4 receptor (Homo sapiens, UniProt P35408); test: FLIPR Ca2+ signaling antagonist assay, EP4 receptor stable cell line; type: cell-based; details: HEK-293 EBNA stable cells with chimeric Gqs, standard agonist PGE2; NA = inactive (no antagonism or Kb≧10,000 nM)
T6 construct: expressed in transfected cells
Procedure: as §1, §2, §3, §4

[7] = target: T7, human prostanoid IP receptor (Homo sapiens, UniProt P43119); test: FLIPR Ca2+ signaling antagonist assay, IP receptor stable cell line; type: cell-based; details: HEK-293 EBNA stable cells, standard agonist Cicaprost; NA = inactive (no antagonism or Kb≧10,000 nM)
T7 construct: expressed in transfected cells
Procedure: as §1, §2, §3, §4

[8] = target: T8, human prostanoid TP receptor (Homo sapiens, UniProt P21731); test: FLIPR Ca2+ signaling antagonist assay, TP receptor stable cell line; type: cell-based; details: HEK-293 EBNA stable cells, standard agonist U-46619; NA = inactive (no antagonism or Kb≧10,000 nM)
T8 construct: expressed in transfected cells
T8 sequence (P21731 1-343): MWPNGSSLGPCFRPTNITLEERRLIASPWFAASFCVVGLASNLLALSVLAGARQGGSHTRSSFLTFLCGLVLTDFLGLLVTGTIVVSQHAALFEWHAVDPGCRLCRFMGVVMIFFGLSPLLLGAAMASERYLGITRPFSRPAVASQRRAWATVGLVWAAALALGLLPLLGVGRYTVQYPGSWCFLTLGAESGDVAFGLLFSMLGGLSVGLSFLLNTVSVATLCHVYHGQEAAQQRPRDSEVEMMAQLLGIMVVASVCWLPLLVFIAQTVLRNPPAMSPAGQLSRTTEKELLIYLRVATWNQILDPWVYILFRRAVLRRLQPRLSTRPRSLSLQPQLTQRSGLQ
Procedure: as §1, §2, §3, §4

[9] = test system: Dutch-belted pigmented rabbits; test: Arachidonate induced uveitis, anterior chamber leukocyte infiltration; type: in vivo, rabbit; details: topical, concentrations of 0.1, 0.3 and 1%; 0.5% sodium arachidonate challenge; FIG. 12
Procedure: The rational for this protocol is to use arachidonate to directly produce ocular anterior segment uveitis, as opposed to using lipopolysaccharide (LPS) to indirectly release arachidonic acid.
Conscious male or female Dutch-belted pigmented rabbits weighing 2.5-3 kg were used for all in vivo slit lamp studies. Four animals were employed per test group. The right eye of each animal receiving 35 μl of topically administered test and the contralateral left eye of each animal receiving 35 μl of topically administered vehicle (t=0 minutes), followed 30 minutes later by treatment with 35 μl of 0.5% sodium arachidonate onto the surface of both eyes (t=30 minutes). Both eyes were examined by slit lamp 60 minutes following sodium arachdionate challenge (t=90 minutes) at 16× magnification under both white light and blue light illumination at an approximate angle of 45° through 1 mm and 5 mm slit widths.
Anterior chamber leukocyte infiltration was measured using a numerical scoring system to estimate cell number per field defined by a 5 mm slit width: 0=no cells per field (no response); 1=1-10 cells per field (mild); 2=11-20 cells per field (moderate); 3=[…] cells per field (severe); 4=>50 cells per filed (florid). Results are reported as the mean score value±S.E.M.

[10] = Allergic conjunctival itch (itch-scratch episodes); type: in vivo; details: FIGS. 10 and 11, both experiments
Procedure: The compounds of this invention were tested according to the method described in “Characterization of Receptor Subtypes Involved in Prostanoid-Induced Conjunctival Pruritis and Their Role in Mediating Conjunctival Itching”, Vol. 279, No. 1, (JPET)279, 137-142′ 1996 for their efficacy in alleviating itch.

T6 sequence (P35408 whole entry): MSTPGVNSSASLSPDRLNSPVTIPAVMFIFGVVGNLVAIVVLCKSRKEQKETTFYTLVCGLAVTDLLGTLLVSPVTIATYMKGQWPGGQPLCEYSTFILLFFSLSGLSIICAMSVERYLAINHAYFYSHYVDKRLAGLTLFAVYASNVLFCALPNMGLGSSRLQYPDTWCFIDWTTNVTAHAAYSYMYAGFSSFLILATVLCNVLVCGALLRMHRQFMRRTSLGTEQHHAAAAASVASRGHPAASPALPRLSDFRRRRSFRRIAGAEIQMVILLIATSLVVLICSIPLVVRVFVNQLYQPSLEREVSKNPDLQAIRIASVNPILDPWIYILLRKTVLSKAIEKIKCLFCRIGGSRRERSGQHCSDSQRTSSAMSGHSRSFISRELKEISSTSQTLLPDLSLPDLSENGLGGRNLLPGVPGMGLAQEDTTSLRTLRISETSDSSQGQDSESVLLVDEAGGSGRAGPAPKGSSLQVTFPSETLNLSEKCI
T4 sequence (P43116 whole entry): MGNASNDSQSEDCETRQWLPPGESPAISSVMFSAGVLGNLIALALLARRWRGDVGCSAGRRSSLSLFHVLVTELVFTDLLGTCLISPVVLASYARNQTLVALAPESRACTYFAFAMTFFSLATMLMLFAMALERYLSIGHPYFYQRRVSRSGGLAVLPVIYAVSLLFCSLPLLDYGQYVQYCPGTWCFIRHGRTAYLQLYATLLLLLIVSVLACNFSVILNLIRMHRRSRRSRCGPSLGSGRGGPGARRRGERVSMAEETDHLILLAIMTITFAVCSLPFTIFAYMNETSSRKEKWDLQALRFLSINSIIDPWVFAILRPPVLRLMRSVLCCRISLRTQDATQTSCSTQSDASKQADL
T1 sequence (P43088 whole entry): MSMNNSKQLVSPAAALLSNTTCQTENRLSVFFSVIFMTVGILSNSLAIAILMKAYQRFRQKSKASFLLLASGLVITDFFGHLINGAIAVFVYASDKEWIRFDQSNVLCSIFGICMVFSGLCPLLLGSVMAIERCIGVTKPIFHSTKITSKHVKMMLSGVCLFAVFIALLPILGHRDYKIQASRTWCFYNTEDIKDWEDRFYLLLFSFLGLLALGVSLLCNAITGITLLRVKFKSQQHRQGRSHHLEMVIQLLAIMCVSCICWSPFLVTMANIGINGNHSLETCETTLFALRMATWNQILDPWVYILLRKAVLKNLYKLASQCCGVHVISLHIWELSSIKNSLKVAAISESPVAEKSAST
T7 sequence (P43119 whole entry): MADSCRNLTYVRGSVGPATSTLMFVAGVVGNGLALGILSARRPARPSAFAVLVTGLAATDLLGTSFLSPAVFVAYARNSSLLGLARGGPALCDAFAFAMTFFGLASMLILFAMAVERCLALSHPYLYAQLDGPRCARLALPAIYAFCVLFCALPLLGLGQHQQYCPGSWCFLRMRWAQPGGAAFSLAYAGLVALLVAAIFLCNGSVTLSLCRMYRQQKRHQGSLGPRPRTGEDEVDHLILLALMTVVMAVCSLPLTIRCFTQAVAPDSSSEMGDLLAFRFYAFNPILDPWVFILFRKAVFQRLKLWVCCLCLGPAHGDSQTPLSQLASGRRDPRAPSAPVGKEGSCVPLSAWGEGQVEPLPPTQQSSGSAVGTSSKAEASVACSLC

Compound	Kb [1] [nM]	Kb [2] [nM]	Kb [3] [nM]	Kb [4] [nM]	Kb [5] [nM]	Kb [6] [nM]	Kb [7] [nM]	Kb [8] [nM]	effect in model for uveitis (anterior chamber leukocyte infiltration score) [9]	number of itch-scratch episodes [10]
Cc1cc(CCC(=O)NS(=O)(=O)C(F)(F)F)nn1Cc1cc(Cl)ccc1OCc1ccc(Cl)cc1 [Example 1, N-(3-{1-[5-Chloro-2-(4-Chloro-Benzyloxy)-Benzyl]-5-Methyl-1H-Pyrazol-3-yl}-Propionyl)-C,C,C-Trifluoromethanesulfonamide]	140	280	22	3100	1400	150	620	12		
CCC(CC)COc1ccc(Br)cc1Cn1nc(CCC(=O)O)cc1C [Example 3, 3-{1-[5-Bromo-2-(2-ethyl-butoxy)-benzyl]-5-methyl-1H-pyrazol-3-yl}-propionic acid]	75	140	40	2300		85	1600	9	dose dependent response	significantly lower number of itch-scratch episodes
CCC(CC)COc1ccc(Cl)cc1Cn1nc(CCC(=O)O)cc1C [Example 3a, 3-{1-[5-Chloro-2-(2-ethyl-butoxy)-benzyl]-5-methyl-1H-pyrazol-3-yl}-propionic acid]	180	220	71	2900	7100	68	1100	5	dose dependent response	significantly lower number of itch-scratch episodes
Cc1cc(CCC(=O)O)nn1Cc1cc(Br)ccc1OCC1CCCC1 [Example 4, 3-[1-(5-Bromo-2-cyclopentylmethoxybenzyl)-5-methyl-1H-pyrazol-3-yl]-propionic acid]	75	240	24	1200	7800	120	1600	30		
Cc1cc(CCC(=O)O)nn1Cc1cc(Cl)ccc1OCC1CCCC1 [Example 4a, 3-[1-(5-Chloro-2-cyclopentylmethoxybenzyl)-5-methyl-1H-pyrazol-3-yl]-propionic acid]	110	280	80	4500		180	1200	3		
Cc1cc(CCC(=O)O)nn1Cc1cc(C(F)(F)F)ccc1OCC1CCCC1 [Example 5, 3-[1-(2-Cyclopentylmethoxy-5-trifluoromethylbenzyl)-5-methyl-1H-pyrazol-3-yl]-propionic acid]	63	220	24	3400		240	6800	7		
